Reference: patent US6855804B2, “Covalently reactive transition state analogs and methods of use thereof” (Board of Regents, The University of Texas System, priority 1998, dated 2005)
Non-standard residues stand in square brackets, D forms with d. Residues, ends and D or L forms follow the SMILES beside them. *: point of attachment. Sta = CC(C)C[C@H](N)[C@@H](O)CC(=O)O; Isovaleryl = CC(C)CC(=O)*

What was measured:
[1] = molecular target: trypsin (porcine, type IX) (Sus scrofa, UniProt P00761); experiment: biochemical; type: biochemical
L chain GG63 = L chain GG63 (Homo sapiens, UniProt P01834); experiment: Inhibition of L chain GG63 catalysed PFR-MCA cleavage
Fv YZ17 [2] = type: biochemical, mouse
L chain clone c23.5 = type: binding
L chain clone SK35 = type: binding
Fv YZ17 [3] = type: binding, mouse
trypsin = trypsin (Sus scrofa, UniProt P00761); type: binding, porcine
Thrombin (human, a) = Thrombin (human, a) (Homo sapiens, UniProt P00734); type: biochemical
L chain c23.5 [4] = type: biochemical
[5] = system: VIPase antibody fragments; type: biochemical
L chain U16 [6] = type: binding, mouse
Fv mRT3 = type: biochemical
L chain c23.5 [7] = type: binding
L chain hk14 [8] = type: biochemical
L chain hk14 [9] = type: binding
L chain U16 [10] = type: biochemical, mouse

Chain of trypsin (porcine, type IX) (P00761 9-231): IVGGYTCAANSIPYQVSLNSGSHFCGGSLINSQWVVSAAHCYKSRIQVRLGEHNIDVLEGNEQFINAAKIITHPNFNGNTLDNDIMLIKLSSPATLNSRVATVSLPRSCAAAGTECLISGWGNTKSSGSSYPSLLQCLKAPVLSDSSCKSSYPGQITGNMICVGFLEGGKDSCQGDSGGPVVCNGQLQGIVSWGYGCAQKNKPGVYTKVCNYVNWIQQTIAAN
Chain of trypsin (P00761 9-231): as above

N=C(N)c1ccc(C(NC(=O)OCc2ccccc2)P(=O)(O)Oc2ccccc2)cc1 (stereo not shown) [Compound 2, Monophenyl N-(benzyloxycarbonyl)amino(4-amidinophenyl)methanephosphonate]
Ki [1]: 5.2 mM | kinact/KI ([1]; read-out: k2/Ki): 1.5 M⁻¹ s⁻¹

c1cnc2c(c1)ccc1cccnc12 [Phenanthroline, phenanthroline]
inhibition at 10000 µM (L chain GG63; read-out: Inhibition, % Phenanthroline): 0.6% | Inhibition, % Phenanthroline (Fv YZ17 [2]): 0.2%

CC(C)CC(=O)N[C@H](C(=O)N[C@H](C(=O)N[C@@H](CC(C)C)[C@@H](O)CC(=O)N[C@@H](C)C(=O)N[C@@H](CC(C)C)[C@@H](O)CC(=O)O)C(C)C)C(C)C [Pepstatin A, pepstatin A] (Isovaleryl-VV[Sta]A[Sta]-OH)
Inhibition, % Pepstatin A (L chain GG63): 0.2 (1.3) % | Inhibition, % Pepstatin A (Fv YZ17 [2]): 1.2 (2.9) %

N=C(N)c1ccc(C(NC(=O)OCc2ccccc2)P(=O)(Oc2ccccc2)Oc2ccccc2)cc1 (stereo not shown) [Compound 1, Diphenyl N-(benzyloxycarbonyl)amino(4-amidinophenyl)methanephosphonate, reference compound]
k2, first-order rate constant for formation of covalent adduct [1]: 2.0 min⁻¹ | kapp/[I] [1]: 3703 M⁻¹ s⁻¹ | ΔG of noncovalent enzyme-inhibitor interactions (ΔG=−RTlnKi) [1]: 7.3 kcal/mol

N=C(N)c1ccc(C(NC(=O)CCCCCNC(=O)CCCC[C@@H]2SC[C@@H]3NC(=O)N[C@@H]32)P(=O)(O)Oc2ccccc2)cc1 (stereo partly shown) [Compound 4, Monophenyl N-[6-(biotinamido)hexanoyl]amino(4-amidinophenyl)methanephosphonate]
stable adduct formation with L chain c23.5 (L chain clone c23.5): failed to form stable 4-adduct | stable adduct formation with L chain SK35 (L chain clone SK35): adducts stable to denaturing treatments were observed | stable adduct formation with Fv YZ17 (Fv YZ17 [3]): adducts stable to denaturing treatments were observed

NC(=O)CI [Iodoacetamide, iodoacetamide]
Inhibition, % Iodoacetamide (L chain GG63): 5.8% | Inhibition, % Iodoacetamide (Fv YZ17 [2]): 4.4%

N=C(N)c1ccc(C(NC(=O)CCSSCCC(=O)NCCNC(=O)CCCCC2SCC3NC(=O)NC32)P(=O)(O)Oc2ccccc2)cc1 (stereo not shown) [Compound 3, Monophenyl-N-[2-(biotinamido)ethylamido-3,3′-dithiodipropionyl]amino(4-amidinophenyl)methanephosphonate]
inhibition of trypsin activity after pretreatment and dilution [1]: 85% | inhibition of trypsin without pretreatment [1]: no inhibition | inhibition of trypsin-catalyzed EAR-MCA hydrolysis [1]: 9.9-80% | irreversibility of trypsin inhibition [1]: irreversible | k3, first-order rate constant for decomposition of Ei-I [1]: ~0 | trypsin activity level following gel filtration [1]: 27.6±2.6 FU/h | trypsin activity level without removal of phosphonate [1]: 33.2±2.6 FU/h | trypsin activity of adduct isolated by gel filtration after incubation in buffer [1]: 50.2±7.0 FU/h | irreversible inhibition of YZ17 activity (Fv YZ17 [2]): inhibition of activity despite dilution | covalent labeling of trypsin (adducts after denaturing treatment) (trypsin): labeled | irreversible inhibition of thrombin activity (Thrombin (human, a)): inhibition of activity despite dilution

N=C(N)c1ccc(C(NC(=O)CCSSCCC(=O)NCCNC(=O)CCCCC2SCC3NC(=O)NC32)P(=O)(Oc2ccccc2)Oc2ccccc2)cc1 (stereo not shown) [Compound 5, Diphenyl-N-[2-(biotinamido)ethylamido-3,3′-dithiodipropionyl]amino(4-amidinophenyl)methanephosphonate]
kapp/[I] [1]: 0.23 M⁻¹ s⁻¹ | trypsin activity level following gel filtration [1]: 5.0±0.1 FU/h | trypsin activity level without removal of phosphonate [1]: 6.5±0.2 FU/h | covalent labeling of trypsin (adducts after denaturing treatment) (trypsin): labeled

phenylphosphonate 4-nitrophenyl [N-(6-biotinylhexanediamin-1-yl)carboxymethyl]tropan-3-ol diester [diester II]
inhibition of cleavage of PFR-MCA (L chain c23.5 [4]): 83% | irreversibility of peptidase inhibition after removal of free inhibitor by gel filtration [5]: did not restore the catalytic activity | II labeling of monomer L chain, % of the Fv level (L chain U16 [6]): 51% | inhibition of cleavage of PFR-MCA (Fv mRT3): 92% | II labeling of monomer L chain, % of the Fv level (L chain c23.5 [7]): 18% | inhibition of cleavage of PFR-MCA (L chain hk14 [8]): 71% | II labeling of monomer L chain, % of the Fv level (L chain hk14 [9]): 33% | inhibition of cleavage of PFR-MCA (L chain U16 [10]): 79%
